This is an account of results in ChEMBL document CHEMBL5634086, “Small molecule inhibitors of NLRP3 inflammasome and GSK-3β in the management of traumatic brain injury: A review” (Eur J Med Chem, 2023).

Molecules are shown by their SMILES.

Experiment [1] deals with NACHT, LRR and PYD domains-containing protein 3 (Homo sapiens, UniProt Q96P20). As to the kind of experiment: Inhibition of NLRP3 inflammasome in LPS-induced […] cells assessed as reduction in IL-1beta release preincubated for 1 hr followed by ATP addition and measured after 30 mins by ELISA. The class given is cell-based. Background: An ELISA detects its analyte on a solid surface through an enzyme-linked reagent.

A short description of experiment [2]: Inhibition of LPS/ATP induced IL-1beta release in human THP-1 cells at 10 uM pretreated with LPS for 3 hrs followed by compound addition for 1 hr prior to ATP addition for another 1 hr by ELISA. The experiment is classed as functional. The settings on record: time 2 hrs. Details: scale not given: the % may be the effect or the level left.
The target of experiment [3] is T1, Glycogen synthase kinase-3 beta (Homo sapiens, UniProt P49841). The experiment can be described thus: Inhibition of GSK3beta (unknown origin) expressed in Sf9 cells incubated for 30 mins in presence of [gamma32P]ATP by scintillation counting method.
For experiment [4], the target named is T1, Glycogen synthase kinase-3 beta. As to the kind of experiment: Inhibition of GST-tagged GSK3beta (unknown origin).

T1 sequence (P49841 whole entry): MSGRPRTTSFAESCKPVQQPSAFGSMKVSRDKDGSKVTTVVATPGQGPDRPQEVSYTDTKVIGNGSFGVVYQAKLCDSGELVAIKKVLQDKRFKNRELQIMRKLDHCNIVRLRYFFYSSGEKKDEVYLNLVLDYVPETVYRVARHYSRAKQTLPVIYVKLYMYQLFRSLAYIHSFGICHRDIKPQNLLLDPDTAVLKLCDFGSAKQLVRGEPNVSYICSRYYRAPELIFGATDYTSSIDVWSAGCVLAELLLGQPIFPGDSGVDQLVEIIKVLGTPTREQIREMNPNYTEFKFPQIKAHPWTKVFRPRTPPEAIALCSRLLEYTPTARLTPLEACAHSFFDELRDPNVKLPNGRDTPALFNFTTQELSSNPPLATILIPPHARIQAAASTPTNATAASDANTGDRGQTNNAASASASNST
Sequence of NACHT, LRR and PYD domains-containing protein 3 (Q96P20 whole entry, the tested form may be a part): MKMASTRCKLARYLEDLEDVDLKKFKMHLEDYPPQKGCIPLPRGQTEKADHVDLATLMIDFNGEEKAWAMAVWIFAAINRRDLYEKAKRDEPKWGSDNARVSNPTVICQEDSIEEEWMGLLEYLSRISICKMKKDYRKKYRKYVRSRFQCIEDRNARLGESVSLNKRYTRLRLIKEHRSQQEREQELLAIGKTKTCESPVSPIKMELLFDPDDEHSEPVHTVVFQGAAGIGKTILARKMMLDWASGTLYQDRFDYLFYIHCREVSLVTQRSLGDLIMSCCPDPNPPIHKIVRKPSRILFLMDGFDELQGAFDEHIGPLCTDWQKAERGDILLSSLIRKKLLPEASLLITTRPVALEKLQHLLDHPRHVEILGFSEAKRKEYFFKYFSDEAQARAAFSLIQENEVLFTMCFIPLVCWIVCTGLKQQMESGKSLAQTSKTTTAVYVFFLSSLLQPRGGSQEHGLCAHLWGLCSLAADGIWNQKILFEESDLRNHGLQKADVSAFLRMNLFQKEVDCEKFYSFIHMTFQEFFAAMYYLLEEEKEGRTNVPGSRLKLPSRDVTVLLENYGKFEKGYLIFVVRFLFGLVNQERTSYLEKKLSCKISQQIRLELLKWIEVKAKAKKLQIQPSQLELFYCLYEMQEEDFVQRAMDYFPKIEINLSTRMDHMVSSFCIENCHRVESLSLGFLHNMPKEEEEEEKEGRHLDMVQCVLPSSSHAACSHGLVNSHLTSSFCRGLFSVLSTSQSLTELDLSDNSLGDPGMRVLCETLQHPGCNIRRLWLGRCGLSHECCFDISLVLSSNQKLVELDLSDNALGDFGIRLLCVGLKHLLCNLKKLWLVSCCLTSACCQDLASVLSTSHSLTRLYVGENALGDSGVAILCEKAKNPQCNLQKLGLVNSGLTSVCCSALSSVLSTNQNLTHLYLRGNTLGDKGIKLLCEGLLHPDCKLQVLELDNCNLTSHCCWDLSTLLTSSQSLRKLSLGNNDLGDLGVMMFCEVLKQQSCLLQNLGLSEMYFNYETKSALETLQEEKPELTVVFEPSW

As to `O=c1[nH]c(-c2ccc([N+](=O)[O-])cc2)nc2ccccc12`, the IC50 (usually the concentration that gives 50% inhibition) in experiment [1] worked out at 5000 nM.
As to `c1cc2[nH]c(-c3cscn3)nc2cn1`, the Activity in experiment [2] was determined as 30%.
In the case of `O=C1Cc2c([nH]c3ccc([N+](=O)[O-])cc23)-c2ncccc2N1`, the IC50 in experiment [3] and in experiment [4] was 4 nM each time.
